Experimental data: paper PMC6986439, “Sultiame pharmacokinetic profile in plasma and erythrocytes after single oral doses: A pilot study in healthy volunteers” (Pharmacology Research & Perspectives, 2020)
Values joined by “and” are separate entries in the source; they are usually repeats but may differ in a detail not shown here. Equal entries are not always repeated. Where two headings read alike, the source gives them in different places.

Assays:
[1] = Population PK compartmental analysis (two-compartment model with saturable ligand to receptor binding); assay type: in vivo, human
Experimental: A population PK analysis was also performed using a nonlinear mixed‐effect modeling approach (NONMEM version 7.4, ICON Development Solutions, Hanover MD, USA). […] The model was expressed in terms of differential equations and first‐order rate constants of absorption (ka), elimination (ke), association with (kon) and dissociation from (koff) receptors, maximal binding capacity (Btot), apparent central volume of distribution (Vc/F), and erythrocytes’ volume of distribution (Very). Note that Very actually encompasses the volume of all types of cells containing receptors, assumed to tally with the sampled erythrocytes. Plasma protein binding was assumed constant over the whole range of observed concentrations. Renal extraction fraction (Qren) was added to characterize urine excretion with an additional compartment for urine data. Values of kon and koff characterized in vitro at different temperatures were used as initial estimates and the value of kon to 2018 µM^−1 h^−1 at 37°C fixed in the in vivo model. F was not evaluated, making the model estimate apparent values for Vc/F and CL/F. The first‐order elimination rate constant from the central compartment was calculated as ke = (CL/F)/(Vc/F). The first value below the LLOQ was equaled to LLOQ/2 and subsequent nonquantifiable values were discarded (M6 method).12 Details concerning differential equations and model building steps and adjustment are available in Supplemental material.
Figure 1 Compartmental model accounting for nonlinearity of distribution. Aa, amount of sultiame at the absorption site; Ap, amount of sultiame in plasma and central compartment; Vc, central volume of distribution; Aery, amount of sultiame in the cells, assumed to be bound to receptors; Very, cellular volume of distribution; ka, absorption rate constant; ke, elimination rate constant; kon, constant of association onto receptors binding sites; koff, constant of dissociation from the binding site; Bbound, amount of occupied receptors, assumed equal to Aery; Bfree, amount of free binding sites; Btot, sultiame maximal binding capacity (mg); Qren, renal fraction of the elimination rate; Foral, oral bioavailability, assumed equal to 1
A stepwise procedure was used to identify the model that best fitted the data, comparing two‐, three‐, and four‐compartmental models (peripheral or separate intracellular compartments for free and bound sultiame), and other nonlinear models (Bmax sigmoid model). Exponential errors were used for the description of between‐subject variability (BSV) of PK parameters. Proportional, additive, and mixed error models were compared to describe the residual variability. The stability and internal validity of the final model were assessed by means of standard procedures, detailed in Supplemental material. Covariates were not analyzed due to the limited number of subjects included.
Our population PK analysis used a non-linear mixed effect two-compartment model with first-order absorption incorporating a saturable ligand to receptor binding. We fitted it to our data with the NONMEM software (version 7.4, ICON Development Solutions, Hanover MD, USA), using the ADVAN13 subroutine.
Notice that Aery simultaneously expresses the amount of binding sites occupied by sultiame (Bbound). Thus, the amount of free binding sites corresponds to Bfree = (Btot – Aery), and the model only needs the parameter Btot to characterize the size of the saturable compartment associated to receptor binding (in mg of sultiame). The values of kon and koff characterized in vitro at 37°C were used in the in vivo model as initial estimates, and the kon was fixed to 2018 µM^-1· h^-1.
The model was fitted to the data using first order conditional estimation (FOCE) to obtain values for the eight model parameters listed above. […]

[2] = design: method as in earlier work; conditions: manufacturer's information ref 8; cited from earlier work
[3] = population estimate of final model

Work on `NS(=O)(=O)c1ccc(N2CCCCS2(=O)=O)cc1` [Sultiame] yielded a Btot ([1]; bootstrap evaluation, median) of 111 mg, a QRen ([1]; bootstrap evaluation, median) of 28.8% and a Vc ([1]; bootstrap evaluation, median) of 64.8 L. The Very ([1]; bootstrap evaluation, median) was 3.27 L, the ka ([1]; bootstrap evaluation, median) was 1.88 h⁻¹ and the koff ([1]; bootstrap evaluation, median) was 2.244 s⁻¹. For the same compound, the kon ([1]; bootstrap evaluation, median, fixed) was 560600 M⁻¹ s⁻¹, the Kd ([1]; final population model, read-out: estimated kD of final model (koff/kon)) was 4 µM and the Vd ([1]; male, human, erythrocytes, oral, population estimate of final model, read-out: Very, cell (erythrocyte compartment) volume of distribution) was 3.3 L. For the same compound, the Vd ([1]; male, human, plasma, oral, population estimate of final model, read-out: Vc, central volume of distribution) was 64.8 L, the clearance ([1]; male, human, plasma, oral, bootstrap evaluation, median of 2000 replicates, read-out: CLplasma (converted)) was 166 mL/min and the “kon, association constant” value ([1]; not estimated but fixed in the in vivo model to the in vitro value at 37°C) was 560600 M⁻¹ s⁻¹. The “Btot, maximal binding capacity” value [1, 3] was 111 mg, the “QRen, fraction eliminated by renal route” value [1, 3] was 28.8% and the “Very, cell (erythrocyte compartment) volume of distribution” value [1, 3] was 3.27 L. For the same compound, the “ka, constant of absorption” value [1, 3] was 1.88 h⁻¹, the “koff, dissociation constant” value [1, 3] was 2.244 s⁻¹ and the “CLplasma, apparent plasma clearance (CL/F)” value ([1]; population estimate of final model, oral 50, 100, 200 mg) was 10.0 L/h and 9.95 L/h. For the same compound, the “Plasma‐free fraction” value [2] was 71%.
